Data: ChEMBL document CHEMBL5050844 (2019)

Columns and labels:
[1] = Induction of anti-CD3/CD28 antibodies-stimulated human T cell activation at 1 uM assessed fold increase in IL-2 secretion measured by ELISA assay; assay type: functional, T cell line
[2] = Induction of anti-CD3/CD28 antibodies-stimulated human T cell activation at 0.3 uM assessed fold increase in IL-2 secretion measured by ELISA assay; assay type: functional, T cell line
[3] = Induction of anti-CD3 antibodies-stimulated human T cell activation at 8 uM assessed fold increase in IL-2 secretion measured by ELISA assay; assay type: functional, T cell line; note: reference of the scale not given here
[4] = Induction of anti-CD3 antibodies-stimulated human T cell activation at 1 uM assessed fold increase in IL-2 secretion measured by ELISA assay; assay type: functional, T cell line; note: reference of the scale not given here
[5] = Induction of anti-CD3/CD28 antibodies-stimulated human T cell activation at 4 uM assessed fold increase in CD25 expression measured by ELISA assay; assay type: functional, T cell line
[6] = Induction of anti-CD3/CD28 antibodies-stimulated human T cell activation at 1 uM assessed fold increase in CD25 expression measured by ELISA assay; assay type: functional, T cell line
[7] = Induction of anti-CD3/CD28 antibodies-stimulated human T cell activation at 0.3 uM assessed fold increase in CD25 expression measured by ELISA assay; assay type: functional, T cell line
[8] = Induction of anti-CD3 antibodies-stimulated human T cell activation at 8 uM assessed fold increase in CD25 expression measured by ELISA assay; assay type: functional, T cell line; note: reference of the scale not given here
[9] = Induction of anti-CD3 antibodies-stimulated human T cell activation at 1 uM assessed fold increase in CD25 expression measured by ELISA assay; assay type: functional, T cell line; note: reference of the scale not given here
[10] = Induction of anti-CD3/CD28 antibodies-stimulated human CD4+ T cell activation at 10 uM assessed fold increase in CD69 expression measured by flow cytometry analysis; assay type: functional, T cell line
[11] = Induction of anti-CD3/CD28 antibodies-stimulated human CD4+ T cell activation at 1.11 uM assessed fold increase in CD69 expression measured by flow cytometry analysis; assay type: functional, T cell line
[12] = Induction of anti-CD3/CD28 antibodies-stimulated human CD8+ T cell activation at 1.11 uM assessed fold increase in CD69 expression measured by flow cytometry analysis; assay type: functional, T cell line
[13] = Induction of anti-CD3/CD28 antibodies-stimulated human CD8+ T cell activation at 10 uM assessed fold increase in cell proliferation measured by flow cytometry analysis; assay type: functional, T cell line
[14] = Induction of anti-CD3/CD28 antibodies-stimulated human CD8+ T cell activation at 1.11 uM assessed fold increase in cell proliferation measured by flow cytometry analysis; assay type: functional, T cell line
[15] = Induction of anti-CD3 antibodies-stimulated human CD4+ T cell activation at 10 uM assessed fold increase in CD69 expression measured by flow cytometry analysis; assay type: functional, T cell line; note: reference of the scale not given here
[16] = Induction of anti-CD3 antibodies-stimulated human CD4+ T cell activation at 1.11 uM assessed fold increase in CD69 expression measured by flow cytometry analysis; assay type: functional, T cell line; note: reference of the scale not given here
[17] = Induction of anti-CD3 antibodies-stimulated human CD8+ T cell activation at 10 uM assessed fold increase in CD69 expression measured by flow cytometry analysis; assay type: functional, T cell line; note: reference of the scale not given here
[18] = Induction of anti-CD3 antibodies-stimulated human CD8+ T cell activation at 1.11 uM assessed fold increase in cell proliferation measured by flow cytometry analysis; assay type: functional, T cell line; note: reference of the scale not given here
[19] = Induction of anti-CD3/CD28 antibodies-stimulated human T cell activation at 1.11 uM assessed fold increase in GM-CSF secretion measured by ELISA assay; assay type: functional, T cell line
[20] = Induction of anti-CD3 antibodies-stimulated human T cell activation at 10 uM assessed fold increase in GM-CSF secretion measured by ELISA assay; assay type: functional, T cell line; note: reference of the scale not given here
[21] = Induction of anti-CD3 antibodies-stimulated human T cell activation at 1.11 uM assessed fold increase in GM-CSF secretion measured by ELISA assay; assay type: functional, T cell line; note: reference of the scale not given here
[22] = Induction of anti-CD3/CD28 antibodies-stimulated human T cell activation at 10 uM assessed fold increase in TNF-alpha secretion measured by ELISA assay; assay type: functional, T cell line
[23] = Induction of anti-CD3 antibodies-stimulated human T cell activation at 10 uM assessed fold increase in TNF-alpha secretion measured by ELISA assay; assay type: functional, T cell line; note: reference of the scale not given here
[24] = Induction of anti-CD3/CD28 antibodies-stimulated human T cell activation at 1.11 uM assessed fold increase in IFN-gamma secretion measured by ELISA assay; assay type: functional, T cell line
[25] = Induction of anti-CD3 antibodies-stimulated human T cell activation at 10 uM assessed fold increase in IFN-gamma secretion measured by ELISA assay; assay type: functional, T cell line; note: reference of the scale not given here
[26] = Induction of allogenic human T cell activation at 10 uM assessed fold increase in cell proliferation; assay type: functional, T cell line
[27] = Induction of anti-CD3 antibodies-stimulated human exhausted T cell activation assessed fold increase in IL-2 secretion measured by ELISA assay; assay type: functional, T cell line; note: reference of the scale not given here
[28] = Induction of anti-CD3 antibodies-stimulated human exhausted T cell activation assessed fold increase in GM-CSF secretion measured by ELISA assay; assay type: functional, T cell line; note: reference of the scale not given here
[29] = Induction of anti-CD3 antibodies-stimulated human exhausted CD4+ T cell activation assessed fold increase in CTLA4 expression measured by flow cytometry analysis; assay type: functional, T cell line; note: reference of the scale not given here
[30] = Induction of anti-CD3 antibodies-stimulated human exhausted CD8+ T cell activation assessed fold increase in CTLA4 expression measured by flow cytometry analysis; assay type: functional, T cell line; note: reference of the scale not given here
[31] = Induction of anti-CD3/CD28 antibodies-stimulated human anergic T cell activation at 10 uM assessed fold increase in IFN-gamma secretion measured by ELISA assay; assay type: functional, T cell line
[32] = Induction of anti-CD3/CD28 antibodies-stimulated human anergic T cell activation at 0.37 uM assessed fold increase in IFN-gamma secretion measured by ELISA assay; assay type: functional, T cell line
B cell = assay: Induction of anti-IgM-stimulated human CD20+ B cell activation at 10 to 1000 uM assessed as increase in CD69 expression measured as mean fluorescence intensity AUC by flow cytometry analysis; assay type: functional, cell-based; conditions: dose 10-1000 µM
[33] = Induction of activation of human CD56+ CD3- NK cells co-cultured with human K562 cells in 1:1 ratio and assessed as increase in IFN-gamma secretion at 10 uM measured by ELISA assay; assay type: functional, Natural killer cell
[34] = Induction of activation of human CD56+ CD3- NK cells co-cultured with human K562 cells in 1:1 ratio and assessed as increase in TNF-alpha secretion at 10 uM measured by ELISA assay; assay type: functional, Natural killer cell
[35] = Induction of activation of human CD56+ CD3- NK cells co-cultured with human K562 cells in 1:1 ratio and assessed as increase in IFN-gamma secretion at 2.5 uM measured by ELISA assay; assay type: functional, Natural killer cell
[36] = Induction of activation of human CD56+ CD3- NK cells co-cultured with human K562 cells in 1:1 ratio and assessed as increase in IFN-gamma secretion at 0.625 uM measured by ELISA assay; assay type: functional, Natural killer cell
[37] = Induction of activation of human CD56+ CD3- NK cells co-cultured with human K562 cells in 1:1 ratio and assessed as increase in TNF-alpha secretion at 0.625 uM measured by ELISA assay; assay type: functional, Natural killer cell

## C[C@H](Cc1nncn1C)c1cccc(N2Cc3c(cc(CN4CC(O)C4)cc3C(F)(F)F)C2=O)c1
[1]
  fold change (FC): >=7.5
[2]
  fold change (FC): 2.51
[3]
  fold change (FC): >=0.201
[4]
  fold change (FC): >=0.201
[5]
  fold change (FC): 1.31
[6]
  fold change (FC): 1.31
[7]
  fold change (FC): 1.01
[8]
  fold change (FC): >=1.001
[9]
  fold change (FC): >=1.001
[10]
  fold change (FC): 1.201
[11]
  fold change (FC): <=1.2
[12]
  fold change (FC): <=1.2
[13]
  fold change (FC): 2.01
[14]
  fold change (FC): <=2
[15]
  fold change (FC): 1.201
[16]
  fold change (FC): 1.201
[17]
  fold change (FC): <=1.2
[18]
  fold change (FC): <=2
[19]
  fold change (FC): <=1.5
[20]
  fold change (FC): <=1.5
[21]
  fold change (FC): <=1.5
[22]
  fold change (FC): 1.51
[23]
  fold change (FC): <=1.5
[24]
  fold change (FC): 2.01
[25]
  fold change (FC): <=2
[26]
  fold change (FC): 2.01
[27]
  fold change (FC): >3.01
[28]
  fold change (FC): 1.41
[29]
  fold change (FC): >1.61
[30]
  fold change (FC): >1.61
[31]
  fold change (FC): >4.01
[32]
  fold change (FC): <=2.5
B cell
  AUC: 0.5
[33]
  fold change (FC): 2.01
[34]
  fold change (FC): 2.01
[35]
  fold change (FC): 1.01
[36]
  fold change (FC): 2.01
[37]
  fold change (FC): 1.01

## Cn1cnnc1[C@@H]1C[C@@H]1c1cccc(N2Cc3c(cccc3C(F)(F)F)C2=O)c1
[1]
  fold change (FC): 1.01
[2]
  fold change (FC): <=1
[3]
  fold change (FC): <=0.05
[4]
  fold change (FC): <=0.05
[5]
  fold change (FC): >=1.76
[6]
  fold change (FC): >=1.76
[7]
  fold change (FC): >=1.76
[8]
  fold change (FC): >=1.001
[9]
  fold change (FC): 0.601
[10]
  fold change (FC): 1.201
[11]
  fold change (FC): <=1.2
[12]
  fold change (FC): <=1.2
[13]
  fold change (FC): 2.01
[14]
  fold change (FC): <=2
[15]
  fold change (FC): 1.201
[16]
  fold change (FC): <=1.2
[17]
  fold change (FC): <=1.2
[18]
  fold change (FC): <=2
[19]
  fold change (FC): 1.51
[20]
  fold change (FC): 2.01
[21]
  fold change (FC): <=1.5
[22]
  fold change (FC): 2.01
[23]
  fold change (FC): <=1.5
[24]
  fold change (FC): <=2
[25]
  fold change (FC): 2.01
[26]
  fold change (FC): <=2
[27]
  fold change (FC): 2.51
[28]
  fold change (FC): <=1.4
[29]
  fold change (FC): <=1.4
[30]
  fold change (FC): <=1.4
[31]
  fold change (FC): <=2.5
[32]
  fold change (FC): <=2.5
B cell
  AUC: 0.5
[33]
  fold change (FC): 2.01
[34]
  fold change (FC): 1.01
[35]
  fold change (FC): 1.01
[36]
  fold change (FC): 2.01
[37]
  fold change (FC): 1.01

## C[C@H](Cc1nncn1C)c1cccc(N2Cc3c(cccc3C(F)(F)F)C2=O)c1.Cl
[1]
  fold change (FC): 2.51
[2]
  fold change (FC): 1.01
[3]
  fold change (FC): >=0.201
[4]
  fold change (FC): 0.051
[5]
  fold change (FC): >=1.76
[6]
  fold change (FC): 1.51
[7]
  fold change (FC): 1.31
[8]
  fold change (FC): >=1.001
[9]
  fold change (FC): 0.601
[10]
  fold change (FC): 1.201
[11]
  fold change (FC): <=1.2
[12]
  fold change (FC): <=1.2
[13]
  fold change (FC): 2.01
[14]
  fold change (FC): <=2
[15]
  fold change (FC): <=1.2
[16]
  fold change (FC): <=1.2
[17]
  fold change (FC): <=1.2
[18]
  fold change (FC): <=2
[19]
  fold change (FC): <=1.5
[20]
  fold change (FC): <=1.5
[21]
  fold change (FC): <=1.5
[22]
  fold change (FC): 1.51
[23]
  fold change (FC): <=1.5
[24]
  fold change (FC): 3.01
[25]
  fold change (FC): <=2
[26]
  fold change (FC): <=2
[27]
  fold change (FC): <=2.5
[28]
  fold change (FC): <=1.4
[29]
  fold change (FC): 1.41
[30]
  fold change (FC): 1.41
[31]
  fold change (FC): <=2.5
[32]
  fold change (FC): <=2.5
B cell
  AUC: 1.01
[33]
  fold change (FC): 2.01
[34]
  fold change (FC): <=1
[35]
  fold change (FC): 1.01
[36]
  fold change (FC): 1.01
[37]
  fold change (FC): 1.01

## Cn1cnnc1CC1(c2cccc(NC(=O)c3nc4c(C(F)(F)F)cccc4[nH]3)c2)COC1
[1]
  fold change (FC): 5
[2]
  fold change (FC): 2.51
[3]
  fold change (FC): >=0.201
[4]
  fold change (FC): 0.101
[5]
  fold change (FC): 1.51
[6]
  fold change (FC): 1.51
[7]
  fold change (FC): 1.31
[8]
  fold change (FC): >=1.001
[9]
  fold change (FC): 0.801
[10]
  fold change (FC): >1.601
[11]
  fold change (FC): 1.401
[12]
  fold change (FC): 1.201
[13]
  fold change (FC): 3.01
[14]
  fold change (FC): 3.01
[15]
  fold change (FC): >1.601
[16]
  fold change (FC): >1.601
[17]
  fold change (FC): 1.401
[18]
  fold change (FC): >4
[19]
  fold change (FC): 1.51
[20]
  fold change (FC): 2.01
[21]
  fold change (FC): <=1.5
[22]
  fold change (FC): 2.01
[23]
  fold change (FC): 1.51
[24]
  fold change (FC): >4
[25]
  fold change (FC): 2.01
[26]
  fold change (FC): <=2
[27]
  fold change (FC): >3.01
[28]
  fold change (FC): <=1.4
[29]
  fold change (FC): >1.61
[30]
  fold change (FC): >1.61
[31]
  fold change (FC): >4.01
[32]
  fold change (FC): <=2.5
B cell
  AUC: 0.5
[33]
  fold change (FC): 2.01
[34]
  fold change (FC): 2.01
[35]
  fold change (FC): 1.01
[36]
  fold change (FC): 2.01
[37]
  fold change (FC): 1.01
